The values that follow come from article PMC4735018, “De Novo Evolutionary Emergence of a Symmetrical Protein Is Shaped by Folding Constraints” (Cell, 2016).

The subject of one assay is T1, AncB1B.
T1 construct: single ancestral motif of about 47 residues, blade frame, first-library variant with F23L from error-prone PCR; homo-pentamer; E. coli (pET29), GlcNAc-resin purified
Put plainly: isothermal titration calorimetry. The assay is classed as binding, synthetic construct. Particulars: 25 °C, 20 mM Tris, 150 mM NaCl, pH 7.6; 10 µM propeller; single site model, five near-identical non-cooperative sites.

For a further assay, the system named is T2, AncA1B.
T2 construct: single ancestral motif of about 47 residues, blade frame, from second ancestral library; homo-pentamer; E. coli (pET29), GlcNAc-resin purified
Put plainly: isothermal titration calorimetry. The assay is classed as binding, synthetic construct. Particulars: 25 °C, 20 mM Tris, 150 mM NaCl, pH 7.6; 10 µM propeller; single site model, five near-identical non-cooperative sites. (In general: In ITC the heat of successive injections is recorded.)

Consider `CC(=O)N[C@H]1C(O)O[C@H](CO)[C@@H](O)[C@@H]1O` (some centres unmarked) [GlcNAc], for which the binding affinity entry is “The earliest evolutionary stage of single motifs was sampled using AncA1B and AncB1B” in the assay with AncB1B; “five different parameters were measured for representative variants along the evolutionary trajectory” with AncA1B.
